The values below come from ChEMBL document CHEMBL1201862, “PubChem BioAssay data set” (2004).

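1) Cells in 96-well plates. 2) Compound, 48 h, 5 concentrations. 3) Linear interpolation between surrounding doses. 4) Unreached endpoint = highest concentration. Here, GI50 denotes the concentration required for 50% inhibition of growth.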 The source made the active and inactive calls. No stated cut-off is given here; in the data, active = GI50 up to about 1.1 µM and inactive = higher.

Assay in all cases: NCI-60 cell line screen, 48 h
Test [1] relates to SNB-19.
In test [2] the test system is Malme-3M.
Test [3] has as its system OVCAR-4.
Test [4] deals with NCI-H460.
The test system of test [5] is MOLT-4.
The test system of test [6] is COLO 205.
The test system of test [7] is SF-295.
For test [8], the system named is SK-MEL-2.
Test [9] relates to 786-0.
Test [10] has as its system UACC-257.
Test [11] relates to HCC 2998.
For test [12], the system named is HCT-15.
Test [13] concerns CAKI-1.
Test [14] concerns EKVX.
Test [15] deals with SK-OV-3.
For test [16], the system named is SF-539.
The test system of test [17] is TK-10.
In test [18] the test system is NCI-H23.
Test [19] deals with M14.

As to `OCC(O)C(O)C(O)c1nn(-c2ccc(F)cc2)c2nc3cc(Cl)c(Cl)cc3nc12` (stereo not given), the GI50 was 18.3 µM (inactive) in test [1]; 9.51 µM (inactive) in [2]; 6.21 µM (inactive) in [3]; 25.5 µM (inactive) in test [4]; 18.8 µM (inactive) in test [5]; 69 µM (inactive) in [6]. Besides, the GI50 is 29.1 µM (inactive) in test [7]; 17.3 µM (inactive) in test [8]; 17.3 µM (inactive) in [9]; 21.4 µM (inactive) in test [10]; 29.4 µM (inactive) in [11]; 53.3 µM in test [12]. For the same molecule, the GI50 in test [13] was 21.7 µM (inactive); in test [14], 18.9 µM (inactive); in test [15] it was 23.3 µM (inactive); in [16], 13.9 µM (inactive); in test [17], 21.5 µM (inactive); in [18], 18.5 µM (inactive). Besides, the GI50 in test [19] is 18.2 µM (inactive).

Turning to `O=C(/C=C/c1c(O)ccc2ccccc12)c1ccccc1Cl`, the GI50 in test [1] is 49.8 µM (inactive); in test [2], 18.5 µM (inactive); in test [3], 39 µM (inactive); in test [4], 30.6 µM (inactive); in test [5], 33.4 µM (inactive); in test [6], 17.8 µM (inactive). In addition, the GI50 was 23.2 µM (inactive) in [7]; 27.7 µM (inactive) in [8]; 60.8 µM (inactive) in test [9]; 19.7 µM (inactive) in test [10]; > 100 µM (inactive) in test [11]; 36.4 µM in test [12]. Besides, the GI50 is 81.5 µM (inactive) in [13]; 67.9 µM (inactive) in test [14]; > 100 µM (inactive) in test [15]; 26.5 µM (inactive) in test [16]; > 100 µM (inactive) in test [17]; 19.8 µM (inactive) in [18]. Moreover, the GI50 in test [19] is 18.5 µM (inactive).

For `COc1ccc(C(Cl)=C(c2ccc(OCCN(C)C)cc2)c2ccc(OCCN(C)C)cc2)cc1`, the GI50 in test [1] was 2.42 µM (inactive); in test [2], 1.81 µM (inactive); in [3], 2.49 µM (inactive); in [4], 1.82 µM (inactive); in test [5] it was 1.22 µM (inactive); in test [6], 1.39 µM (inactive). Also, the GI50 was 1.74 µM (inactive) in [7]; 1.68 µM (inactive) in [8]; 1.27 µM (inactive) in [9]; 2.26 µM (inactive) in [11]; 1.59 µM in [12]; 4.6 µM (inactive) in test [13]. The GI50 in test [14] is 5.11 µM (inactive); in [15], 2.53 µM (inactive); in test [16] it was 1.57 µM (inactive); in [17], 17.1 µM (inactive); in test [18], 1.73 µM (inactive); in [19], 1.5 µM (inactive).

As to `COc1cc(CNc2cnc3ccc(N)cc3n2)cc(OC)c1OC`, the GI50 in test [1], in test [2], in [3], in test [4], in [5] and in test [6] was > 100 µM (inactive) in each case. Besides, the GI50 in test [7] was > 100 µM (inactive); in test [8], > 100 µM (inactive); in [9] it was > 100 µM (inactive); in test [10], > 100 µM (inactive); in [11], 72.4 µM (inactive); in [12], greater than 100 µM. The GI50 in test [13], in test [14], in [15], in test [16], in test [17] and in test [18] was > 100 µM (inactive) in each case. Also, the GI50 in test [19] was > 100 µM (inactive).

Regarding `O=C(O)CCNS(=O)(=O)c1ccc(NC(=O)c2ccccc2)cc1`, the GI50 in test [1], in test [2], in [3], in test [4], in test [5] and in test [6] was > 100 µM (inactive) throughout. In addition, the GI50 is > 100 µM (inactive) in test [7]; > 100 µM (inactive) in test [8]; > 100 µM (inactive) in [9]; > 100 µM (inactive) in [10]; > 100 µM (inactive) in test [11]; greater than 100 µM in test [12]. The GI50 in test [13], in test [14], in test [15], in test [16], in test [17] and in [18] was > 100 µM (inactive) each time. In addition, the GI50 in test [19] was > 100 µM (inactive).

Turning to `NC1(CCCCCCCCCCC(=O)O)CNCCNCCNCCNC1`, the GI50 was 18.5 µM (inactive) in test [1]; 78.3 µM (inactive) in test [2]; 30.9 µM (inactive) in [3]; 26.6 µM (inactive) in test [4]; 30.2 µM (inactive) in test [5]; 15.6 µM (inactive) in test [6]. Moreover, the GI50 was > 100 µM (inactive) in [7]; 52.5 µM (inactive) in test [8]; 36.7 µM (inactive) in test [9]; > 100 µM (inactive) in test [10]; 15.2 µM (inactive) in [11]; 84.1 µM (inactive) in test [13]. The GI50 in test [14] is 94.6 µM (inactive); in [15] it was 63.8 µM (inactive); in test [16], 54.1 µM (inactive); in [17], 31.2 µM (inactive); in test [18], > 100 µM (inactive); in test [19], 75.3 µM (inactive).

Take `O=C(Cc1nc2ccccc2s1)NC12CC3CC(CC(C3)C1)C2`: the GI50 in test [1], in test [2], in [3], in [4], in test [5] and in test [7] was > 100 µM (inactive) each time. For the same molecule, the GI50 in test [8] is > 100 µM (inactive); in test [9], > 100 µM (inactive); in test [10], > 100 µM (inactive); in test [11], > 100 µM (inactive); in [12], greater than 100 µM; in test [13], > 100 µM (inactive). The GI50 in test [14], in test [15], in test [16], in [17], in test [18] and in [19] was > 100 µM (inactive) in each case.

Consider `COC(=O)c1c(C)cccc1/C=C1\Cc2cc(C)cc(C)c2C1=O`, for which the GI50 is 18.5 µM (inactive) in [1]; > 100 µM (inactive) in test [2]; 9.75 µM (inactive) in [3]; 98.4 µM (inactive) in test [4]; > 100 µM (inactive) in [5]; 21.7 µM (inactive) in test [7]. In addition, the GI50 was 13.2 µM (inactive) in test [8]; 16.3 µM (inactive) in test [9]; > 100 µM (inactive) in test [10]; 82.2 µM (inactive) in test [11]; greater than 100 µM in test [12]; > 100 µM (inactive) in [13]. Further, the GI50 in test [14] was 37.6 µM (inactive); in [16], 35.1 µM (inactive); in [17], 27.2 µM (inactive); in test [18] it was 51.1 µM (inactive); in test [19], 55 µM (inactive).

For the molecule `Cc1ccc(/N=C2\N=C(N3CC(C)OC(C)C3)c3ccccc32)cc1` (stereo not given), the GI50 in [1] is 35 µM (inactive); in test [2], 31.2 µM (inactive); in [3] it was 18.1 µM (inactive); in [4], 27.2 µM (inactive); in test [5], 20.1 µM (inactive); in test [6], 40.3 µM (inactive). Further, the GI50 is 29.9 µM (inactive) in test [7]; 24.4 µM (inactive) in test [8]; 34.4 µM (inactive) in test [9]; 22.7 µM (inactive) in test [10]; 29.5 µM (inactive) in test [11]; 25.4 µM in test [12]. The GI50 in [13] is 20.4 µM (inactive); in [14], 32.6 µM (inactive); in test [16], 17.9 µM (inactive); in test [17], 34.2 µM (inactive); in test [18] it was 28.5 µM (inactive); in [19], 19.3 µM (inactive).

Turning to `Cc1ccc(C)c(NC(=O)CC/C(=N\NC(=O)c2c(O)ccc3ccccc23)C(C)C(=O)c2ccc(O)cc2)c1` (stereo not given), the GI50 is 11.6 µM (inactive) in test [1]; 34.8 µM (inactive) in [2]; 29.9 µM (inactive) in [3]; 21.7 µM (inactive) in test [4]; 27.2 µM (inactive) in test [5]; 25.2 µM (inactive) in test [6]. In addition, the GI50 in test [7] was 37.2 µM (inactive); in [8], 24.7 µM (inactive); in test [9] it was 28.5 µM (inactive); in test [10], 31.9 µM (inactive); in test [11], 44.6 µM (inactive); in test [12], 26.5 µM. The GI50 in test [13] was 65.2 µM (inactive); in test [16], 30.7 µM (inactive); in [17], > 100 µM (inactive); in test [18], 31.1 µM (inactive); in [19], 16.9 µM (inactive).

In the case of `COc1cc(C[P+](c2ccccc2)(c2ccccc2)c2ccccc2)cc(OC)c1OC`, the GI50 in test [1], in test [2], in test [3], in test [4], in test [6] and in test [7] was > 100 µM (inactive) throughout. Also, the GI50 in test [8] is > 100 µM (inactive); in test [9] it was > 100 µM (inactive); in test [10] it was > 100 µM (inactive); in test [11], > 100 µM (inactive); in test [12], greater than 100 µM; in test [13] it was > 100 µM (inactive). In addition, the GI50 in [14], in test [15], in test [16], in test [17], in [18] and in [19] was > 100 µM (inactive) in each case.
